The values that follow are results of earlier work, collected in publication PMC3547157 (Journal of the American Chemical Society, 2012).

In this series the target is T1, COX-2 enzyme (Homo sapiens, UniProt P35354).
T1 sequence (P35354 18-604): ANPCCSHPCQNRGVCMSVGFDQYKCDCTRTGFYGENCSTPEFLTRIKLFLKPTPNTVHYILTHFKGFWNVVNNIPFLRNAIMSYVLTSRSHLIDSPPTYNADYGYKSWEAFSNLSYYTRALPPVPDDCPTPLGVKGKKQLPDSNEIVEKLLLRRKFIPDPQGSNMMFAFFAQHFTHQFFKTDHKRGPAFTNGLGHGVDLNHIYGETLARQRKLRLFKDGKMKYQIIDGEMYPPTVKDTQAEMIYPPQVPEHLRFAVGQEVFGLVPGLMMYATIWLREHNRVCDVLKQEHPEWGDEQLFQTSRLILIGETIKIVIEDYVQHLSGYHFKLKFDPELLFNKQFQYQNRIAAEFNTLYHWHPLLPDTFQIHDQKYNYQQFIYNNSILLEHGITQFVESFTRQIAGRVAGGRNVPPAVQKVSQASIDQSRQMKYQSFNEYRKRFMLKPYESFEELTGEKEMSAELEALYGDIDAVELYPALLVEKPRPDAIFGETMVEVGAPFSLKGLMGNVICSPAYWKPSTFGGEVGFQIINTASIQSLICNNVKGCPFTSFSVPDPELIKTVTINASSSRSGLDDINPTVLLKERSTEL
To be noted: read-out: reported IC50 of naproxen to COX-2; literature values.

pIC50: −log10 of the molar value.

`COc1ccc2cc([C@H](C)C(=O)O)ccc2c1` [naproxen]: the pIC50 is 4.55 to 5.70.
